{"source": "patent US20110070211A1", "about": "(priority 2009, published 2011)", "system": "DU-145 cells", "assay_type": "cell-based, Human"}
{"smiles": "C=C1[C@@H](C)[C@H]2[C@H](Cc3ccccc3)NC(=O)[C@]23[C@H](OC(C)=O)/C=C/[C@@](C)(O)C(=O)[C@@H](C)C/C=C/[C@H]3[C@@H]1O", "note": "[Cytochalasin-D]", "values": [{"measurement": "Effect on cell migration", "result": "did not migrate"}, {"measurement": "Relative Wound Density at 24 Hours, Mean", "result": "3.3 ± 0.2"}, {"measurement": "Relative Wound Density at 24 Hours, Percent Relative to Media", "result": 4, "unit": "%"}]}
